Calls of active or inactive are those of the source. No cut-off for these calls is given here.
Assays:
HCT-116 [1] = experiment: Cytotoxicity against human HCT116 cells assessed as cell killing at 0.5 uM relative to control; assay type: functional
SW480 = experiment: Synergistic cytotoxicity against human SW480 cells assessed as combination index at 5 uM incubated for 48 hrs in presence of 2GY ionizing radiation (IR); assay type: functional
HeLa = experiment: Radiosensitizing activity in human HeLa cells assessed as sensitization of 2 GY ionizing radiation induced decrease in cell survival by colony formation assay; assay type: functional, cell-based
[2] = Half life in male Sprague-Dawley rat at 1 mg/kg, iv measured up to 24 hrs by LCMS-MS analysis; assay type: ADME, organism-based; settings: in vivo
[3] = MRT infinity in male Sprague-Dawley rat at 5 mg/kg, IG measured up to 24 hrs by LCMS-MS analysis; assay type: ADME, organism-based; settings: in vivo, po
[4] = Oral bioavailability in male Sprague-Dawley rat at 5 mg/kg measured up to 24 hrs by LCMS-MS analysis; assay type: ADME, organism-based; settings: in vivo
HCT-116 [5] = experiment: In vivo radiosensitizing activity in human HCT-116 cells xenografted in BALB/c mouse assessed as sensitization of 1 GY ionizing radiation induced tumor growth inhibition at 1 mg/kg, ip every day for 14 days radiated for every 2 days once; assay type: functional, organism-based; settings: time 14.0 day
HCT-116 [6] = experiment: In vivo radiosensitizing activity in human HCT-116 cells xenografted in BALB/c mouse assessed as sensitization of 1 GY ionizing radiation induced tumor growth inhibition at 10 mg/kg, ip every day for 14 days radiated for every 2 days once; assay type: functional, organism-based; settings: time 14.0 day
[7] = Toxicity in BALB/c mouse xenografted with human HCT-116 cells assessed as change in body weight at 1 mg/kg, ip every day for 14 days; assay type: organism-based; settings: in vivo, 336 h, time 14 day
[8] = Toxicity in BALB/c mouse xenografted with human HCT-116 cells assessed as change in liver weight at 1 to 10 mg/kg, ip every day for 14 days; assay type: organism-based; settings: in vivo, 336 h, dose 1-10 mg/kg, time 14 day
[9] = Toxicity in BALB/c mouse xenografted with human HCT-116 cells assessed as change in kidney weight at 1 to 10 mg/kg, ip every day for 14 days; assay type: organism-based; settings: in vivo, 336 h, dose 1-10 mg/kg, time 14 day
[10] = Toxicity in BALB/c mouse xenografted with human HCT-116 cells assessed as change in liver weight at 1 to 10 mg/kg, ip every day for 14 days radiated for every 2 days once; assay type: organism-based; settings: in vivo, 336 h, dose 1-10 mg/kg, time 14 day
[11] = Toxicity in BALB/c mouse xenografted with human HCT-116 cells assessed as change in kidney weight at 1 to 10 mg/kg, ip every day for 14 days radiated for every 2 days once; assay type: organism-based; settings: in vivo, 336 h, dose 1-10 mg/kg, time 14 day
[12] = test system: Tyrosyl-DNA phosphodiesterase 1/Deoxyribonucleic acid; experiment: Stabilization of TDP1/DNA complex in human HCT-116 cells at 100 uM ionizing radiation with 4 GY by Cellular Thermal Shift Assay (CETSA); assay type: cell-based
[13] = target: Tyrosyl-DNA phosphodiesterase 1 (Homo sapiens, UniProt Q9NUW8); experiment: Inhibition of TDP1 in human SgTDP1-HCT-116 cells (TDP1 knockout) at 1.11 mM; assay type: cell-based
Tyrosyl-DNA phosphodiesterase 1, sequence (Q9NUW8 whole entry): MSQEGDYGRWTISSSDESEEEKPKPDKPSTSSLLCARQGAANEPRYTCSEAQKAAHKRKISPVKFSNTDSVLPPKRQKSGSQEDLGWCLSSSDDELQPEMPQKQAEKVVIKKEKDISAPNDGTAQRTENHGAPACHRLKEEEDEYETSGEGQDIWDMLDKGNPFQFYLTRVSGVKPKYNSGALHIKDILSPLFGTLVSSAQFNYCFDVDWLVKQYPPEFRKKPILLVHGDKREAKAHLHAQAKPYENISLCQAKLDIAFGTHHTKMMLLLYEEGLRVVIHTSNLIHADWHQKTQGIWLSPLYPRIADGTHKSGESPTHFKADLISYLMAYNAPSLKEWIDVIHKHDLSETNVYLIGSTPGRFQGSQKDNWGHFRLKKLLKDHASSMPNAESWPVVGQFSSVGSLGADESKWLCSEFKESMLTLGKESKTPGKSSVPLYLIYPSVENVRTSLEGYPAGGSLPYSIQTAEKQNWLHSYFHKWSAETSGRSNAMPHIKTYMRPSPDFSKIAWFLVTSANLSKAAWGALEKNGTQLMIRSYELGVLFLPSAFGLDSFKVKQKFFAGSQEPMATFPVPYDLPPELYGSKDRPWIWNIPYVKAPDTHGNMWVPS

HCT-116 [14] = experiment: Synergistic cytotoxicity against human SgTDP1-HCT-116 cells (TDP1 knockout) assessed as combination index at 1 uM incubated for 48 hrs in presence of 2GY ionizing radiation; assay type: functional
[15] = Suppression of ionizing radiation (IR) induced DNA damage in human SgTDP1-HCT-116 cells (TDP1 knockout) assessed as NHEJ repair activity by measuring GFP positive cells at 1 uM measured after 24 hrs by flow cytometry (reference value: 100%); assay type: functional
HCT-116 [16] = experiment: Suppression of ionizing radiation (IR) induced DNA damage in human wild type HCT-116 cells assessed as HR repair activity by measuring GFP positive cells at 1 uM measured after 24 hrs by flow cytometry; assay type: functional, cell-based
HCT-116 [17] = experiment: Effect on Lig4 expression in wild type human HCT-116 cells assessed as change in protein level at 5 to 10 uM measured after 24 hrs by Western blot analysis; assay type: functional, cell-based; settings: dose 5-10 µM
HCT-116 [18] = experiment: Effect on Ku70/80 expression in wild type human HCT-116 cells assessed as change in protein level at 5 to 10 uM radiated with 4 GY ionizing radiation (IR) measured after 24 hrs by Western blot analysis; assay type: functional, cell-based; settings: dose 5-10 µM
HCT-116 [19] = experiment: Reduction in recruitment of XRCC4 at damage site of human HCT-116 cells at 5 uM measured after 3 hrs by fluorescence colocalization assay; assay type: functional, cell-based
HCT-116 [20] = experiment: Induction of gamma-H2AX level in human HCT-116 cells at 5 uM measured after 3 hrs by Western blot analysis; assay type: functional, cell-based
HCT-116 [21] = experiment: Induction of ionizing radiation (IR) induced gamma-H2AX foci in human HCT-116 cells at 5 uM measured after 3 hrs by immunofluorescence assay; assay type: functional, cell-based
HCT-116 [22] = experiment: Upregulation of p53 signaling pathway in human HCT-116 cells at 5 uM measured after 24 hrs by KEGG analysis; assay type: functional, cell-based
HCT-116 [23] = experiment: Induction of PIG3 expression in human HCT-116 cells xenografted BALB/c mouse tumor at 5 to 10 mg/kg, ip every day for 14 days by immunohistochemical analysis; assay type: functional, organism-based; settings: dose 5-10 mg/kg, time 14.0 day
HCT-116 [24] = experiment: Induction of 4GY ionizing radiation (IR) induced ROS production in human HCT-116 cells assessed as mitochondrial dysfunction by measuring mitochondrial membrane potential loss at 10 uM measured after 24 hrs by JC-1 staining analysis; assay type: functional, cell-based
HCT-116 [25] = experiment: Induction of 4GY ionizing radiation (IR) induced ROS production in human HCT-116 cells assessed as mitochondrial dysfunction by measuring mitochondrial membrane potential loss at 10 uM measured after 24 hrs by flow cytometry; assay type: functional, cell-based
HCT-116 [26] = experiment: Induction of cell cycle arrest in human HCT-116 cells assessed as accumulation of cells at G0/G1 phase at 5 uM measured after 24 hrs by Propidium iodide (PI) staining based assay (reference value: 69.35%); assay type: functional
[27] = Induction of 4GY ionizing radiation (IR) induced cell cycle arrest in human HCT-116 cells assessed as accumulation of cells at G2/M phase at 10 uM measured after 24 hrs by Propidium iodide (PI) staining based assay (reference value: 20.51%); assay type: functional
HCT-116 [28] = experiment: Induction of apoptosis in human HCT-116 cells assessed as early apoptotic cells at 10 uM measured after 24 hrs by FITC Annexin V/PI apoptosis detection assay (reference value: 0.26%); assay type: functional
HCT-116 [29] = experiment: Induction of apoptosis in human HCT-116 cells assessed as viable cells at 10 uM measured after 24 hrs by FITC Annexin V/PI apoptosis detection assay (reference value: 99.71%); assay type: functional; settings: read-out: Activity
HCT-116 [30] = experiment: Induction of apoptosis in human HCT-116 cells assessed as late apoptotic cells at 10 uM measured after 24 hrs by FITC Annexin V/PI apoptosis detection assay (reference value: 0%); assay type: functional
HCT-116 [31] = experiment: Induction of 4GY ionizing radiation (IR) induced apoptosis in human HCT-116 cells measured after 24 hrs by TUNEL staining based analysis; assay type: functional, cell-based; settings: dose 5-10 µM
HCT-116 [32] = experiment: Induction of apoptosis in human HCT-116 cells assessed as induction of 4GY ionizing radiation (IR) induced cleaved Caspase-9 at 5 uM measured after 24 hrs by Western blot analysis; assay type: functional, cell-based

SMILES: COc1cc2c(=O)n(CCN(C)C)c3c4cc5c(cc4ccc3c2cc1OCCN1CCOCC1)OCO5
- Activity (HCT-116 [1]): 11%
- CI (SW480): <0.3
- Activity (HeLa): inactive
- half-life [2]: 2.86 h
- MRT inf [3]: 7.06 h
- bioavailability [4]: 63.1%
- TGI (HCT-116 [5]): Active
- TGI (HCT-116 [6]): Active
- Activity [7]: Non-toxic
- Activity [8]: Non-toxic
- Activity [9]: Non-toxic
- Activity [10]: Non-toxic
- Activity [11]: Non-toxic
- Activity [12]: Active; Coincubation With Ionizing Radiation Showed Greater Complex Formation
- inhibition [13]: inactive
- CI (HCT-116 [14]): 0.46
- Activity [15]: 7%
- Activity (HCT-116 [16]): inactive
- Activity (HCT-116 [17]): inactive
- Activity (HCT-116 [18]): inactive
- Activity (HCT-116 [19]): Active
- Activity (HCT-116 [20]): Active
- Activity (HCT-116 [21]): Active
- Activity (HCT-116 [22]): Active
- Activity (HCT-116 [23]): Active
- Activity (HCT-116 [24]): Active
- Activity (HCT-116 [25]): Active
- Activity (HCT-116 [26]): 69.89%
- Activity [27]: 68.1%
- Activity (HCT-116 [28]): 13.24%
- viability at 10 µM (HCT-116 [29]): 72.1%
- Activity (HCT-116 [30]): 13.67%
- Activity (HCT-116 [31]): Dose-dependent-effect
- Activity (HCT-116 [32]): Active

Reference: ChEMBL document CHEMBL6134907, “Synthesis of 5,9- and 5,8-Diaminoalkoxy Substituted Benzophenanthridinone Analogues as Tyrosyl-DNA Phosphodiesterase 1 Inhibitors and Their Radiosensitizing Activity” (J Med Chem, 2025)
